This note sets out measurements from patent US9718804B2, “GSK-3 inhibitors” (BRISTOL-MYERS SQUIBB COMPANY, priority 2013, dated 2017).

In one test the target is GSK3β (Homo sapiens, UniProt P49841). Kind of test: GSK3β kinase assay (Caliper LabChip, fluoresceinated peptide substrate). In kind it is biochemical. The essentials:
(§1)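 Reaction: 20 h, room temperature. Quench: 35 mM EDTA. Detection: substrate/product separation by chip electrophoresis. Analysis: eleven concentrations, non-linear regression to IC50.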

For the next test, the target named is GSK3α (Homo sapiens, UniProt P49840). Kind of test: GSK3α kinase assay (Caliper LabChip, fluoresceinated peptide substrate). Type of test: biochemical. The essentials:
as §1

A further test deals with pTau. Kind of test: pTau assay (no method described). In kind it is cell-based.
Where [1] appears, read: first value of the cell, 250 pM enzyme, 20 uM ATP, 20 hours at room temperature, read-out: GSK3β/α (nM): GSK3β IC50.
[2] abbreviates: second value of the cell, 250 pM enzyme, 20 uM ATP, 20 hours at room temperature, read-out: GSK3β/α (nM): GSK3α IC50.

The structures appear in SMILES notation. Read-outs that look alike come from different tables or passages of the source.

Chain of GSK3α (P49840 whole entry, species assumed): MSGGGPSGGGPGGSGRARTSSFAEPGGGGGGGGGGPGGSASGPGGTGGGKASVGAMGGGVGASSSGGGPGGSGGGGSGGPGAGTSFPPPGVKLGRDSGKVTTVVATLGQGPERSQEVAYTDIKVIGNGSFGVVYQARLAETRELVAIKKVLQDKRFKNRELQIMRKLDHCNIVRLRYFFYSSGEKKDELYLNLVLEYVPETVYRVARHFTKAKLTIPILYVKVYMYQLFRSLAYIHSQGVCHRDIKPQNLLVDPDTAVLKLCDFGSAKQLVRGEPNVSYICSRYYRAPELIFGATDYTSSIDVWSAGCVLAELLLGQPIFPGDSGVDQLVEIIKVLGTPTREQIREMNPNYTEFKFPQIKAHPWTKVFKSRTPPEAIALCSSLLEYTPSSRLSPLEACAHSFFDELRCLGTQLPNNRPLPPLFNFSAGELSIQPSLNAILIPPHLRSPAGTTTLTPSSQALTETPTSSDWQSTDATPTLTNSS
Chain of GSK3β (P49841 whole entry, species assumed): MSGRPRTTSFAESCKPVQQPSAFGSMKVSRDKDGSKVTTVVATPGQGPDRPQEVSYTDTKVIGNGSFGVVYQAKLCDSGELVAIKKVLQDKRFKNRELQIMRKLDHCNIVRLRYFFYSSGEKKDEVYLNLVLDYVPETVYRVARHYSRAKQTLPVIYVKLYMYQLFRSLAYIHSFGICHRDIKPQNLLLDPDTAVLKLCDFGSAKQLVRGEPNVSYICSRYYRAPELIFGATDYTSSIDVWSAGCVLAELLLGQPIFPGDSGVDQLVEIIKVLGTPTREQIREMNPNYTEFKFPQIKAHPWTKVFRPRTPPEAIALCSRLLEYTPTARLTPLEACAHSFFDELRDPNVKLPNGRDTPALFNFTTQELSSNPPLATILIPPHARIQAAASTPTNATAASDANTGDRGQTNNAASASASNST

Turning to `CC(C)CSc1ccncc1NC(=O)c1ccnc(Nc2ccc(C(F)(F)F)cn2)c1` [Example 175, N-(4-(Isobutylthio)pyridin-3-yl)-2-((5-(trifluoromethyl)pyridin-2-yl)amino)isonicotinamide], the IC50 at GSK3β (setting [1]) amounted to 1.1 nM; against GSK3α, 0.4 nM; in the test on pTau, 78 nM.

As for `O=C(Nc1cnc(Cl)cc1SC1CC1)c1ccnc(Nc2ccc(C(F)(F)F)cn2)c1` [Example 176, N-(6-Chloro-4-(cyclopropylthio)pyridin-3-yl)-2-((5-(trifluoromethyl)pyridin-2-yl)amino)isonicotinamide], the figures for the IC50 on GSK3β (setting [1]), at GSK3α and with pTau were 11 nM, 7 nM and 1100 nM, respectively.

In the case of `O=C(Nc1cnccc1[S+]([O-])c1ccccc1)c1ccnc(Nc2ccc(C(F)(F)F)cn2)c1` (stereo not drawn) [Example 177, N-(4-(Phenylsulfinyl)pyridin-3-yl)-2-((5-(trifluoromethyl)pyridin-2-yl)amino)isonicotinamide], the IC50 was determined as 3.9 nM on GSK3β (setting [1]), 1.1 nM on GSK3α and 760 nM in the test on pTau.

As for `CC(C)(C)[S+]([O-])c1ccncc1NC(=O)c1ccnc(Nc2ccc(C(F)(F)F)cn2)c1` (stereo not drawn) [Example 178, N-(4-(tert-Butylsulfinyl)pyridin-3-yl)-2-((5-(trifluoromethyl)pyridin-2-yl)amino)isonicotinamide], the IC50 on GSK3β (setting [1]) stood at 0.12 nM; on GSK3α, 1.2 nM; with pTau, 13 nM.

Consider `O=C(Nc1cnc(Cl)cc1[S+]([O-])C1CC1)c1ccnc(Nc2ccc(C(F)(F)F)cn2)c1` (stereo not drawn) [Example 180, N-(6-Chloro-4-(cyclopropylsulfinyl)pyridin-3-yl)-2-((5-(trifluoromethyl)pyridin-2-yl)amino)isonicotinamide], for which the IC50 at GSK3β (setting [1]) was determined as 15 nM; on GSK3α, 7.6 nM; in the test with pTau, 790 nM.

Regarding `CCCS(=O)(=O)c1ccncc1NC(=O)c1ccnc(Nc2ccc(C(F)(F)F)cn2)c1` [Example 182, N-(4-(Propylsulfonyl)pyridin-3-yl)-2-((5-(trifluoromethyl)pyridin-2-yl)amino)isonicotinamide], the IC50 worked out at 5.2 nM at GSK3β (setting [1]), 2.1 nM against GSK3α and 15 nM in the test on pTau.

For `O=C(Nc1cnccc1S(=O)(=O)c1ccccc1)c1ccnc(Nc2ccc(C(F)(F)F)cn2)c1` [Example 183, N-(4-(Phenylsulfonyl)pyridin-3-yl)-2-((5-(trifluoromethyl)pyridin-2-yl)amino)isonicotinamide], the results for the IC50 at GSK3β (setting [1]), against GSK3α and in the test on pTau were 2.2 nM, 0.75 nM and 200 nM, respectively.

Take `O=C(Nc1cnccc1S(=O)(=O)CC(F)(F)F)c1ccnc(Nc2ccc(C(F)(F)F)cn2)c1` [Example 184, N-(4-((2,2,2-Trifluoroethyl)sulfonyl)pyridin-3-yl)-2-((5-(trifluoromethyl)pyridin-2-yl)amino)isonicotinamide]: the values for the IC50 at GSK3β (setting [1]), on GSK3α and in the test with pTau were 120 nM, 4.8 nM and 130 nM, respectively.

For the compound `CC(C)CS(=O)(=O)c1ccncc1NC(=O)c1ccnc(Nc2ccc(C(F)(F)F)cn2)c1` [Example 185, N-(4-(Isobutylsulfonyl)pyridin-3-yl)-2-((5-(trifluoromethyl)pyridin-2-yl)amino)isonicotinamide], the IC50 against GSK3β was 0.51 nM; at GSK3α (setting [2]), 4.8 nM; with pTau, 49 nM.

Take `CC(C)S(=O)(=O)c1ccncc1NC(=O)c1ccnc(Nc2ccc(C(F)(F)F)cn2)c1` [Example 186, N-(4-(Isopropylsulfonyl)pyridin-3-yl)-2-((5-(trifluoromethyl)pyridin-2-yl)amino)isonicotinamide]: the IC50 was 1.2 nM at GSK3β, 0.04 nM at GSK3α (setting [2]) and 2 nM in the test with pTau.

Regarding `CC(C)(C)S(=O)(=O)c1ccncc1NC(=O)c1ccnc(Nc2ccc(C(F)(F)F)cn2)c1` [Example 187, N-(4-(tert-butylsulfonyl)pyridin-3-yl)-2-((5-(trifluoromethyl)pyridin-2-yl)amino)isonicotinamide], the IC50 on GSK3β (setting [1]) was 0.4 nM; at GSK3α, 0.07 nM; in the test with pTau, 1.1 nM.

For the compound `O=C(Nc1cnc(Cl)cc1S(=O)(=O)C1CC1)c1ccnc(Nc2ccc(C(F)(F)F)cn2)c1` [Example 188, N-(6-Chloro-4-(cyclopropylsulfonyl)pyridin-3-yl)-2-((5-(trifluoromethyl)pyridin-2-yl)amino)isonicotinamide], the IC50 on GSK3β (setting [1]) came to 5 nM; at GSK3α it was 3.3 nM; in the test with pTau it was 150 nM.

As to `O=C(Nc1cnccn1)c1ccnc(Nc2ccc(C(F)(F)F)cn2)c1` [Example 189, N-(Pyrazin-2-yl)-2-((5-(trifluoromethyl)pyridin-2-yl)amino)isonicotinamide], the IC50 is 11 nM on GSK3β (setting [1]), 4.3 nM against GSK3α and 1030 nM in the test with pTau.

On to `O=C(Nc1cncc(-c2ccccc2F)n1)c1ccnc(Nc2ccc(C(F)(F)F)cn2)c1` [Example 190, N-(6-(2-Fluorophenyl)pyrazin-2-yl)-2-((5-(trifluoromethyl)pyridin-2-yl)amino)isonicotinamide], for which the IC50 on GSK3β (setting [1]) was 68 nM; against GSK3α, 29 nM; in the test with pTau it was 10000 nM.

Turning to `O=C(Nc1cncnc1)c1ccnc(Nc2ccc(C(F)(F)F)cn2)c1` [Example 191, N-(Pyrimidin-5-yl)-2-((5-(trifluoromethyl)pyridin-2-yl)amino)isonicotinamide], the results for the IC50 on GSK3β (setting [1]), at GSK3α and with pTau were 17 nM, 9 nM and 1600 nM, respectively.

For `O=C(Nc1cncnc1Br)c1ccnc(Nc2ccc(C(F)(F)F)cn2)c1` [Example 192, N-(4-Bromopyrimidin-5-yl)-2-((5-(trifluoromethyl)pyridin-2-yl)amino)isonicotinamide], the IC50 on GSK3β (setting [1]) is 23 nM; against GSK3α, 9.3 nM; in the test with pTau it was 520 nM.

`O=C(Nc1cncnc1-c1ccccc1)c1ccnc(Nc2ccc(C(F)(F)F)cn2)c1` [Example 193, N-(4-Phenylpyrimidin-5-yl)-2-((5-(trifluoromethyl)pyridin-2-yl)amino)isonicotinamide]: the figures for the IC50 on GSK3β (setting [1]), against GSK3α and with pTau were 3.6 nM, 1.9 nM and 165 nM, respectively.

With `O=C(Nc1cncnc1OCC(F)(F)F)c1ccnc(Nc2ccc(C(F)(F)F)cn2)c1` [Example 194, N-(4-(2,2,2-Trifluoroethoxy)pyrimidin-5-yl)-2-((5-(trifluoromethyl)pyridin-2-yl)amino)isonicotinamide], the IC50 at GSK3β (setting [1]) turned out to be 3.2 nM; on GSK3α it was 1.6 nM; in the test on pTau it was 140 nM.

In the case of `O=C(Nc1cncnc1N1CCOCC1)c1ccnc(Nc2ccc(C(F)(F)F)cn2)c1` [Example 195, N-(4-Morpholinopyrimidin-5-yl)-2-((5-(trifluoromethyl)pyridin-2-yl)amino)isonicotinamide], the IC50 was 17 nM on GSK3β (setting [1]), 7.9 nM at GSK3α and 710 nM in the test with pTau.

`O=C(Nc1ccnnc1)c1ccnc(Nc2ccc(C(F)(F)F)cn2)c1` [Example 196, N-(Pyridazin-4-yl)-2-((5-(trifluoromethyl)pyridin-2-yl)amino)isonicotinamide]: the IC50 at GSK3β (setting [1]) worked out at 80 nM; against GSK3α, 25 nM; in the test on pTau, 7400 nM.

Regarding `O=C(Nc1cnncc1Br)c1ccnc(Nc2ccc(C(F)(F)F)cn2)c1` [Example 197, N-(5-Bromopyridazin-4-yl)-2-((5-(trifluoromethyl)pyridin-2-yl)amino)isonicotinamide], the IC50 was found to be 70 nM at GSK3β (setting [1]), 22 nM against GSK3α and 3500 nM with pTau.

As to `O=C(Nc1cnncc1-c1ccccc1)c1ccnc(Nc2ccc(C(F)(F)F)cn2)c1` [Example 198, N-(5-Phenylpyridazin-4-yl)-2-((5-(trifluoromethyl)pyridin-2-yl)amino)isonicotinamide], the figures for the IC50 on GSK3β (setting [1]), at GSK3α and with pTau were 6.7 nM, 2.9 nM and 180 nM, respectively.

Regarding `CC1(c2cnncc2NC(=O)c2ccnc(Nc3ccc(C(F)(F)F)cn3)c2)OCCO1` [Example 200, N-(5-(2-Methyl-1,3-dioxolan-2-yl)pyridazin-4-yl)-2-((5-(trifluoromethyl)pyridin-2-yl)amino)isonicotinamide], the IC50 at GSK3β (setting [1]) worked out at 0.62 nM; against GSK3α, 0.39 nM; with pTau, 3.2 nM.

Regarding `O=C(Nc1cnncc1C1(CCCCl)OCCO1)c1ccnc(Nc2ccc(C(F)(F)F)cn2)c1` [Example 201, N-(5-(2-(3-Chloropropyl)-1,3-dioxolan-2-yl)pyridazin-4-yl)-2-((5-(trifluoromethyl)pyridin-2-yl)amino)isonicotinamide], the IC50 on GSK3β (setting [1]) was 0.19 nM; at GSK3α, 0.4 nM; in the test with pTau, 28 nM.

Turning to `CC(O)(c1cnncc1NC(=O)c1ccnc(Nc2ccc(C(F)(F)F)cn2)c1)C1CC1` (stereo not drawn) [Example 203, N-(5-(1-Cyclopropyl-1-hydroxyethyl)pyridazin-4-yl)-2-((5-(trifluoromethyl)pyridin-2-yl)amino)isonicotinamide], the IC50 on GSK3β (setting [1]) turned out to be 1.2 nM; against GSK3α, 0.94 nM; in the test with pTau, 10000 nM.

With `O=C(Nc1cnsc1-c1ccccc1)c1ccnc(Nc2ccc(C(F)(F)F)cn2)c1` [Example 204, N-(5-Phenylisothiazol-4-yl)-2-((5-(trifluoromethyl)pyridin-2-yl)amino)isonicotinamide], the IC50 was 3 nM at GSK3β (setting [1]), 1.7 nM on GSK3α and 300 nM in the test on pTau.

Turning to `O=C(Nc1cn[nH]c1-c1ccccc1)c1ccnc(Nc2ccc(C(F)(F)F)cn2)c1` [Example 205, N-(5-Phenyl-1H-pyrazol-4-yl)-2-((5-(trifluoromethyl)pyridin-2-yl)amino)isonicotinamide], the IC50 at GSK3β (setting [1]) was determined as 28 nM; against GSK3α, 20 nM; with pTau it was 10000 nM.
